Like-named read-outs stand apart in the source and are kept apart here.
Key:
[1] = system: Key Grass and Sedge Weeds as well as Grass Crops; test: Post-emergent Test II herbicidal activity (Table 6); assay type: in vivo; conditions: post-emergence, 336 h; for pest or weed control at 70 g/ha: application rate 70 g ai/ha; for pest or weed control at 140 g/ha: application rate 140 g ai/ha
Summary of the method: (§1)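 Foliar application at 187 L/ha to greenhouse-grown seedlings (first or second true leaf); subirrigation thereafter. Visual 0–100% injury at 14 d relative to untreated plants.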

[2] = system: Key Broadleaf Weed and Crop Species; test: Post-emergent Test II herbicidal activity (Table 5); assay type: in vivo; conditions: post-emergence, 336 h, post-emergent, 14 days after application; for pest or weed control at 70 g/ha: 70 g ai/ha; for pest or weed control at 140 g/ha: 140 g ai/ha
Summary of the method: as §1

[3] = Triticum aestivum, TRZSS (wheat), read-out: Visual Growth Reduction (%) 14 Days After Application, TRZSS
[4] = CYPES: yellow nutsedge (Cyperus esculentus), read-out: Visual Growth Reduction (%) 14 Days After Application, CYPES
[5] = DIGSA: crabgrass (Digitaria sanguinalis), read-out: Visual Growth Reduction (%) 14 Days After Application, DIGSA
[6] = ECHCG: barnyardgrass (Echinochloa crus-galli), read-out: Visual Growth Reduction (%) 14 Days After Application, ECHCG
[7] = ORYSA: rice (Oryza sativa), read-out: Visual Growth Reduction (%) 14 Days After Application, ORYSA
[8] = SETFA: giant foxtail (Setaria faberi), read-out: Visual Growth Reduction (%) 14 Days After Application, SETFA
[9] = SORVU: grain sorghum (Sorghum vulgare), read-out: Visual Growth Reduction (%) 14 Days After Application, SORVU
[10] = ZEAMX: maize, corn (Zea mays), read-out: Visual Growth Reduction (%) 14 Days After Application, ZEAMX
[11] = ABUTH: velvetleaf (Abutilon theophrasti), read-out: Visual Growth Reduction (%) 14 Days After Application ABUTH
[12] = BRSNN: oilseed-rape, canola (Brassica napus), read-out: Visual Growth Reduction (%) 14 Days After Application BRSNN
[13] = CHEAL: lambsquarters (Chenopodium album), read-out: Visual Growth Reduction (%) 14 Days After Application CHEAL
[14] = EPHHL: wild poinsettia (Euphorbia heterophylla), read-out: Visual Growth Reduction (%) 14 Days After Application EPHHL
[15] = HELAN: sunflower (Helianthus annuus), read-out: Visual Growth Reduction (%) 14 Days After Application HELAN
[16] = VIOTR: wild pansy (Viola tricolor), read-out: Visual Growth Reduction (%) 14 Days After Application VIOTR
[17] = AMARE: redroot pigweed (Amaranthus retroflexus), read-out: Visual Growth Reduction (%) 14 Days After Application AMARE

Structure (SMILES) | pest or weed control at 70 g/ha [1, 3] [%] | pest or weed control at 140 g/ha [1, 3] [%] | pest or weed control at 70 g/ha [1, 4] [%] | pest or weed control at 140 g/ha [1, 4] [%] | pest or weed control at 70 g/ha [1, 5] [%] | pest or weed control at 140 g/ha [1, 5] [%] | pest or weed control at 70 g/ha [1, 6] [%] | pest or weed control at 140 g/ha [1, 6] [%] | pest or weed control at 70 g/ha [1, 7] [%] | pest or weed control at 140 g/ha [1, 7] [%] | pest or weed control at 70 g/ha [1, 8] [%] | pest or weed control at 140 g/ha [1, 8] [%] | pest or weed control at 70 g/ha [1, 9] [%] | pest or weed control at 70 g/ha [1, 10] [%] | pest or weed control at 140 g/ha [1, 10] [%] | pest or weed control at 70 g/ha [2, 11] [%] | pest or weed control at 140 g/ha [2, 11] [%] | pest or weed control at 70 g/ha [2, 12] [%] | pest or weed control at 140 g/ha [2, 12] [%] | pest or weed control at 70 g/ha [2, 13] [%] | further results
C=Cc1c(C(=O)O)nc(-c2ccc(C(F)(F)F)c(F)c2)c(F)c1N [Compound 86] | 0 to 29 | 0 to 29 | 95 to 100 | 95 to 100 | 0 to 29 | 0 to 29 | 75 to 84 | 85 to 94 | 30 to 44 | 45 to 59 | 0 to 29 | 0 to 29 | 75 to 84 | 60 to 74 | 60 to 74 | 95 to 100 | 95 to 100 | 75 to 84 | 95 to 100 | 95 to 100 | pest or weed control at 140 g/ha [2, 13]: 95 to 100%; pest or weed control at 70 g/ha [2, 14]: 95 to 100%; pest or weed control at 140 g/ha [2, 14]: 95 to 100%; pest or weed control at 70 g/ha [2, 15]: 95 to 100%; pest or weed control at 140 g/ha [2, 15]: 95 to 100%; pest or weed control at 70 g/ha [2, 16]: 95 to 100%; pest or weed control at 140 g/ha [2, 16]: 95 to 100%
COC(=O)c1nc(-c2ccc(Br)cc2F)cc(N)c1Cl [Compound 93] | 45 to 59 | 45 to 59 | 95 to 100 | 95 to 100 | 75 to 84 | 95 to 100 | 85 to 94 | 85 to 94 | 0 to 29 | 0 to 29 | 75 to 84 | 75 to 84 | 85 to 94 | 60 to 74 | 75 to 84 | 95 to 100 | 95 to 100 | 0 to 29 | 60 to 74 | 85 to 94 | pest or weed control at 140 g/ha [1, 9]: 95 to 100%; pest or weed control at 70 g/ha [2, 17]: 95 to 100%; pest or weed control at 140 g/ha [2, 17]: 95 to 100%; pest or weed control at 140 g/ha [2, 13]: 95 to 100%; pest or weed control at 70 g/ha [2, 14]: 95 to 100%; pest or weed control at 140 g/ha [2, 14]: 95 to 100%; pest or weed control at 70 g/ha [2, 15]: 85 to 94%; pest or weed control at 140 g/ha [2, 15]: 85 to 94%; pest or weed control at 70 g/ha [2, 16]: 30 to 44%
Cc1c(-c2ccc(OC(F)F)cc2)nc(C(=O)O)c(Cl)c1N [Compound 94, 4-Amino-3-chloro-6-(4-(difluoromethoxy)phenyl)-5-methylpicolinic acid] | 0 to 29 | 0 to 29 | 0 to 29 | 0 to 29 | 0 to 29 | 0 to 29 | 0 to 29 | 0 to 29 | 0 to 29 | 0 to 29 | 0 to 29 | 0 to 29 | 0 to 29 | 0 to 29 | 0 to 29 | 0 to 29 | 0 to 29 | 0 to 29 | 0 to 29 | 85 to 94 | pest or weed control at 140 g/ha [1, 9]: 0 to 29%; pest or weed control at 70 g/ha [2, 17]: 0 to 29%; pest or weed control at 140 g/ha [2, 17]: 45 to 59%; pest or weed control at 140 g/ha [2, 13]: 85 to 94%; pest or weed control at 70 g/ha [2, 14]: 0 to 29%; pest or weed control at 140 g/ha [2, 14]: 0 to 29%; pest or weed control at 70 g/ha [2, 15]: 85 to 94%; pest or weed control at 140 g/ha [2, 15]: 85 to 94%; pest or weed control at 70 g/ha [2, 16]: 0 to 29%; pest or weed control at 140 g/ha [2, 16]: 0 to 29%
COC(=O)c1nc(-c2ccc(I)cc2)c(Cl)c(N)c1Cl [Compound 96] | 60 to 74 | 75 to 84 | 95 to 100 | 95 to 100 | 60 to 74 | 75 to 84 | 0 to 29 | 60 to 74 | 0 to 29 | 0 to 29 | 60 to 74 | 75 to 84 | 85 to 94 | 75 to 84 | 75 to 84 | 95 to 100 | 95 to 100 | 75 to 84 | 85 to 94 | 95 to 100 | pest or weed control at 140 g/ha [1, 9]: 85 to 94%; pest or weed control at 70 g/ha [2, 17]: 85 to 94%; pest or weed control at 140 g/ha [2, 17]: 95 to 100%; pest or weed control at 140 g/ha [2, 13]: 95 to 100%; pest or weed control at 70 g/ha [2, 14]: 75 to 84%; pest or weed control at 140 g/ha [2, 14]: 45 to 59%; pest or weed control at 70 g/ha [2, 15]: 95 to 100%; pest or weed control at 140 g/ha [2, 15]: 95 to 100%; pest or weed control at 70 g/ha [2, 16]: 0 to 29%; pest or weed control at 140 g/ha [2, 16]: 0 to 29%
COC(=O)c1nc(-c2cc(F)c(I)cc2F)c(Br)c(N)c1Cl [Compound 100] | 30 to 44 | 60 to 74 | 0 to 29 | 0 to 29 | 45 to 59 | 60 to 74 | 0 to 29 | 0 to 29 | 0 to 29 | 0 to 29 | 0 to 29 | 0 to 29 | 0 to 29 | 0 to 29 | 45 to 59 | 85 to 94 | 85 to 94 | 60 to 74 | 60 to 74 | 95 to 100 | pest or weed control at 140 g/ha [1, 9]: 0 to 29%; pest or weed control at 70 g/ha [2, 17]: 85 to 94%; pest or weed control at 140 g/ha [2, 17]: 95 to 100%; pest or weed control at 140 g/ha [2, 13]: 95 to 100%; pest or weed control at 70 g/ha [2, 14]: 45 to 59%; pest or weed control at 140 g/ha [2, 14]: 45 to 59%; pest or weed control at 70 g/ha [2, 15]: 85 to 94%; pest or weed control at 140 g/ha [2, 15]: 85 to 94%; pest or weed control at 70 g/ha [2, 16]: 0 to 29%; pest or weed control at 140 g/ha [2, 16]: 0 to 29%

Source: US9113629B2, “4-amino-6-(4-substituted-phenyl)-picolinates and 6-amino-2-(4-substituted-phenyl)-pyrimidine-4-carboxylates and their use as herbicides” (DOW AGROSCIENCES LLC, priority 2013, dated 2015)
